Laboratory results reported in patent US20120283216A1, “FUNGICIDAL 2-(BICYCLIC ARYLOXY)CARBOXAMIDES” (priority 2009, published 2012).

How the values were obtained:
Type in all cases: in vivo
Botrytis cinerea = test: Test C: tomato botrytis, preventive spray on tomato seedlings, visual disease rating; conditions: preventive spray at 40 ppm, rated after 48 h + 3 days; for pest or weed control at 40 ppm: Botrytis cinerea, 120 h, read-out: Test C disease control rating (100 = 100% disease control, 0 = no disease control relative to the controls)
Source text: General protocol for preparing test suspensions for Tests A-C: the test compounds were first dissolved in acetone in an amount equal to 11% of the final volume and then suspended at the desired concentration (in ppm) in acetone and purified water (50/50 mix by volume) containing 250 ppm of the surfactant Trem® 014 (polyhydric alcohol esters). The resulting test suspensions were then used in Tests A-C. Spraying a 40 ppm test suspension to the point of run-off on the test plants was the equivalent of a rate of 800 g/ha.
The test suspension was sprayed to the point of run-off on tomato seedlings. The following day the seedlings were inoculated with a spore suspension of Botrytis cinerea (the causal agent of tomato botrytis) and incubated in saturated atmosphere at 20° C. for 48 h, and then moved to a growth chamber at 27° C. for 3 additional days, after which time disease ratings were visually made.
Results for Tests A-C are given in Table A. In the Table, a rating of 100 indicates 100% disease control and a rating of 0 indicates no disease control (relative to the controls). A dash (-) indicates no test results. All results are from applications of 40 ppm.

Septoria tritici = test: Test B: wheat leaf blotch, preventive spray on wheat seedlings, visual disease rating; conditions: preventive spray at 40 ppm, rated after 48 h + 19 days; for pest or weed control at 40 ppm: Zymoseptoria tritici, 504 h, read-out: Test B disease control rating (100 = 100% disease control, 0 = no disease control relative to the controls)
Source text: (§1) General protocol for preparing test suspensions for Tests A-C: the test compounds were first dissolved in acetone in an amount equal to 11% of the final volume and then suspended at the desired concentration (in ppm) in acetone and purified water (50/50 mix by volume) containing 250 ppm of the surfactant Trem® 014 (polyhydric alcohol esters). The resulting test suspensions were then used in Tests A-C. Spraying a 40 ppm test suspension to the point of run-off on the test plants was the equivalent of a rate of 800 g/ha. The test suspension was sprayed to the point of run-off on wheat seedlings. The following day the seedlings were inoculated with a spore suspension of Septoria tritici (the causal agent of wheat leaf blotch) and incubated in a saturated atmosphere at 20° C. for 48 h, and then moved to a growth chamber at 20° C. for 19 days, after which time disease ratings were visually made. Results for Tests A-C are given in Table A. In the Table, a rating of 100 indicates 100% disease control and a rating of 0 indicates no disease control (relative to the controls). A dash (-) indicates no test results. All results are from applications of 40 ppm.

[1] = system: Blumeria graminis f. sp. tritici; test: Test A: wheat powdery mildew, preventive spray on wheat seedlings, visual disease rating; conditions: preventive spray at 40 ppm, rated 8 days after inoculation; for pest or weed control at 40 ppm: Blumeria graminis, 192 h, read-out: Test A disease control rating (100 = 100% disease control, 0 = no disease control relative to the controls)
Source text: as §1, with “spore dust” for “spore suspension”, “of Blumeria graminis f. sp. tritici,” for “of Septoria tritici”, “wheat powdery mildew)” for “wheat leaf blotch)”, “in” for “in a saturated atmosphere at 20° C. for 48 h, and then moved to”, “for 8” for “for 19”

## CCC(Oc1cnc2ccc(F)cc2c1)C(=O)NC(C)(C)COC (stereo not drawn) [Compound 54]
Botrytis cinerea
  Test C disease control rating (100 = 100% disease control, 0 = no disease control relative to the controls): 0%
Septoria tritici
  Test B disease control rating (100 = 100% disease control, 0 = no disease control relative to the controls): 71%
[1]
  Test A disease control rating (100 = 100% disease control, 0 = no disease control relative to the controls): 0%

## CCOCC(C)(C)NC(=O)C(CC)Oc1cnc2ccc(I)cc2c1 (stereo not drawn) [Compound 55]
Botrytis cinerea
  Test C disease control rating (100 = 100% disease control, 0 = no disease control relative to the controls): 86%
Septoria tritici
  Test B disease control rating (100 = 100% disease control, 0 = no disease control relative to the controls): 99%
[1]
  Test A disease control rating (100 = 100% disease control, 0 = no disease control relative to the controls): 96%

## CCC(Oc1cnc2c(Cl)cc(Cl)cc2c1)C(=O)NC(C)(C)COC (stereo not drawn) [Compound 56]
Botrytis cinerea
  Test C disease control rating (100 = 100% disease control, 0 = no disease control relative to the controls): 99%
Septoria tritici
  Test B disease control rating (100 = 100% disease control, 0 = no disease control relative to the controls): 99%
[1]
  Test A disease control rating (100 = 100% disease control, 0 = no disease control relative to the controls): 0%

## CCC(Oc1cnc2c(Cl)cc(Cl)cc2c1)C(=O)NC(C)(C)C (stereo not drawn) [Compound 57]
Botrytis cinerea
  pest or weed control at 40 ppm: 99%
Septoria tritici
  pest or weed control at 40 ppm: 99%
[1]
  pest or weed control at 40 ppm: 0%

## CCC(Oc1cnc2ccc(Br)cc2c1)C(=O)NC(C)(C)COCOC (stereo not drawn) [Compound 58]
Botrytis cinerea
  Test C disease control rating (100 = 100% disease control, 0 = no disease control relative to the controls): 99%
Septoria tritici
  Test B disease control rating (100 = 100% disease control, 0 = no disease control relative to the controls): 100%
[1]
  Test A disease control rating (100 = 100% disease control, 0 = no disease control relative to the controls): 99%

## COCC(C)(C)NC(=O)C(C)Oc1cnc2ccc(I)cc2c1 (stereo not drawn) [Compound 59, 2-[(6-iodo-3-quinolinyl)oxy]-N-(2-methoxy-1,1-dimethylethyl)propanamide]
Botrytis cinerea
  pest or weed control at 40 ppm: 99%
Septoria tritici
  pest or weed control at 40 ppm: 95%
[1]
  pest or weed control at 40 ppm: 0%

## COCC(C)(C)NC(=O)C(C)Oc1cnc2ccc(Br)cc2c1 (stereo not drawn) [Compound 60]
Botrytis cinerea
  Test C disease control rating (100 = 100% disease control, 0 = no disease control relative to the controls): 95%
Septoria tritici
  Test B disease control rating (100 = 100% disease control, 0 = no disease control relative to the controls): 74%
[1]
  Test A disease control rating (100 = 100% disease control, 0 = no disease control relative to the controls): 0%

## C#CC(C)(C)NC(=O)C(OC)Oc1cnc2ccc(I)cc2c1 (stereo not drawn) [Compound 63, N-(1,1-dimethyl-2-propyn-1-yl)-2-[(6-iodo-3-quinolinyl)oxy]-2-methoxy-acetamide]
Botrytis cinerea
  pest or weed control at 40 ppm: 99%
Septoria tritici
  pest or weed control at 40 ppm: 99%
[1]
  pest or weed control at 40 ppm: 93%

## COC(Oc1cnc2ccc(I)cc2c1)C(=O)NC1(C)CC1 (stereo not drawn) [Compound 64]
Botrytis cinerea
  Test C disease control rating (100 = 100% disease control, 0 = no disease control relative to the controls): 100%
Septoria tritici
  Test B disease control rating (100 = 100% disease control, 0 = no disease control relative to the controls): 99%
[1]
  Test A disease control rating (100 = 100% disease control, 0 = no disease control relative to the controls): 84%

## COCC(C)(C)NC(=O)C(OC)Oc1cnc2ccc(I)cc2c1 (stereo not drawn) [Compound 65]
Botrytis cinerea
  Test C disease control rating (100 = 100% disease control, 0 = no disease control relative to the controls): 100%
Septoria tritici
  Test B disease control rating (100 = 100% disease control, 0 = no disease control relative to the controls): 99%
[1]
  Test A disease control rating (100 = 100% disease control, 0 = no disease control relative to the controls): 81%

## CCC(Oc1cc2cc(F)ccc2cn1)C(=O)NC(C)(C)C (stereo not drawn) [Compound 66]
Botrytis cinerea
  Test C disease control rating (100 = 100% disease control, 0 = no disease control relative to the controls): 88%
Septoria tritici
  Test B disease control rating (100 = 100% disease control, 0 = no disease control relative to the controls): 0%
[1]
  Test A disease control rating (100 = 100% disease control, 0 = no disease control relative to the controls): 79%

## CCC(Oc1cc2cc(Br)ccc2cn1)C(=O)NC(C)(C)C (stereo not drawn) [Compound 67]
Botrytis cinerea
  Test C disease control rating (100 = 100% disease control, 0 = no disease control relative to the controls): 100%
Septoria tritici
  Test B disease control rating (100 = 100% disease control, 0 = no disease control relative to the controls): 77%
[1]
  Test A disease control rating (100 = 100% disease control, 0 = no disease control relative to the controls): 92%

## CCOc1ccc2ccc(OC(OC)C(=O)NC(C)(C)C#N)cc2c1 (stereo not drawn) [Compound 68]
Botrytis cinerea
  Test C disease control rating (100 = 100% disease control, 0 = no disease control relative to the controls): 100%
Septoria tritici
  Test B disease control rating (100 = 100% disease control, 0 = no disease control relative to the controls): 100%
[1]
  Test A disease control rating (100 = 100% disease control, 0 = no disease control relative to the controls): 100%

## C#CC(C)(C)NC(=O)C(OC)Oc1ccc2ccc(OCC)cc2c1 (stereo not drawn) [Compound 69, N-(1,1-dimethyl-2-propyn-1-yl)-2-[(7-ethoxy-2-naphthalenyl)oxy]-2-methoxyacetamide]
Botrytis cinerea
  pest or weed control at 40 ppm: 100%
Septoria tritici
  pest or weed control at 40 ppm: 100%
[1]
  pest or weed control at 40 ppm: 100%

## CCOc1ccc2ccc(OC(OC)C(=O)NC(C)(C)COC)cc2c1 (stereo not drawn) [Compound 70]
Botrytis cinerea
  Test C disease control rating (100 = 100% disease control, 0 = no disease control relative to the controls): 98%
Septoria tritici
  Test B disease control rating (100 = 100% disease control, 0 = no disease control relative to the controls): 100%
[1]
  Test A disease control rating (100 = 100% disease control, 0 = no disease control relative to the controls): 100%

## CCC(Oc1ccc2ccc(OCOC)cc2c1)C(=O)NC(C)(C)C (stereo not drawn) [Compound 71]
Botrytis cinerea
  Test C disease control rating (100 = 100% disease control, 0 = no disease control relative to the controls): 99%
Septoria tritici
  Test B disease control rating (100 = 100% disease control, 0 = no disease control relative to the controls): 99%
[1]
  Test A disease control rating (100 = 100% disease control, 0 = no disease control relative to the controls): 81%

## CCC(Oc1ccc2ccc(OCOC)cc2c1)C(=O)NC(C)(C)C#N (stereo not drawn) [Compound 72]
Botrytis cinerea
  Test C disease control rating (100 = 100% disease control, 0 = no disease control relative to the controls): 100%
Septoria tritici
  Test B disease control rating (100 = 100% disease control, 0 = no disease control relative to the controls): 99%
[1]
  Test A disease control rating (100 = 100% disease control, 0 = no disease control relative to the controls): 0%

## C#CC(C)(C)NC(=O)C(CC)Oc1ccc2ccc(OCOC)cc2c1 (stereo not drawn) [Compound 73]
Botrytis cinerea
  Test C disease control rating (100 = 100% disease control, 0 = no disease control relative to the controls): 99%
Septoria tritici
  Test B disease control rating (100 = 100% disease control, 0 = no disease control relative to the controls): 100%
[1]
  Test A disease control rating (100 = 100% disease control, 0 = no disease control relative to the controls): 0%

## CCOc1ccc2ccc(OC(CC)C(=O)NC(C)(C)C)cc2c1 (stereo not drawn) [Compound 74, N-(1,1-dimethylethyl)-2-[(7-ethoxy-2-naphthalenyl)oxy]butanamide]
Botrytis cinerea
  pest or weed control at 40 ppm: 100%
Septoria tritici
  pest or weed control at 40 ppm: 100%
[1]
  pest or weed control at 40 ppm: 100%

## CCOc1ccc2ccc(OC(CC)C(=O)NC(C)(C)C#N)cc2c1 (stereo not drawn) [Compound 75, N-(1-cyano-1-methylethyl)-2-[(7-ethoxy-2-naphthalenyl)oxy]butanamide]
Botrytis cinerea
  pest or weed control at 40 ppm: 100%
Septoria tritici
  pest or weed control at 40 ppm: 100%
[1]
  pest or weed control at 40 ppm: 100%

## C#CC(C)(C)NC(=O)C(CC)Oc1ccc2ccc(OCC)cc2c1 (stereo not drawn) [Compound 76, N-(1,1-dimethyl-2-propyn-1-yl)-2-[(7-ethoxy-2-naphthalenyl)oxy]butanamide]
Botrytis cinerea
  pest or weed control at 40 ppm: 100%
Septoria tritici
  pest or weed control at 40 ppm: 100%
[1]
  pest or weed control at 40 ppm: 100%

## CCC(Oc1ccc2ccc(C(F)F)cc2c1)C(=O)NC(C)(C)C#N (stereo not drawn) [Compound 77]
Botrytis cinerea
  Test C disease control rating (100 = 100% disease control, 0 = no disease control relative to the controls): 67%
Septoria tritici
  Test B disease control rating (100 = 100% disease control, 0 = no disease control relative to the controls): 99%
[1]
  Test A disease control rating (100 = 100% disease control, 0 = no disease control relative to the controls): 0%

## C#CC(C)(C)NC(=O)C(CC)Oc1ccc2ccc(C(F)F)cc2c1 (stereo not drawn) [Compound 78]
Botrytis cinerea
  Test C disease control rating (100 = 100% disease control, 0 = no disease control relative to the controls): 99%
Septoria tritici
  Test B disease control rating (100 = 100% disease control, 0 = no disease control relative to the controls): 88%
[1]
  Test A disease control rating (100 = 100% disease control, 0 = no disease control relative to the controls): 81%

## COC(Oc1ccc2ccc(C(F)F)cc2c1)C(=O)NC(C)(C)C#N (stereo not drawn) [Compound 79]
Botrytis cinerea
  Test C disease control rating (100 = 100% disease control, 0 = no disease control relative to the controls): 99%
Septoria tritici
  Test B disease control rating (100 = 100% disease control, 0 = no disease control relative to the controls): 98%
[1]
  Test A disease control rating (100 = 100% disease control, 0 = no disease control relative to the controls): 72%

## C#CC(C)(C)NC(=O)C(OC)Oc1ccc2ccc(C(F)F)cc2c1 (stereo not drawn) [Compound 80]
Botrytis cinerea
  Test C disease control rating (100 = 100% disease control, 0 = no disease control relative to the controls): 100%
Septoria tritici
  Test B disease control rating (100 = 100% disease control, 0 = no disease control relative to the controls): 93%
[1]
  Test A disease control rating (100 = 100% disease control, 0 = no disease control relative to the controls): 0%

## COc1ccc2ccc(OC(OC)C(=O)NC(C)(C)C#N)cc2c1 (stereo not drawn) [Compound 81]
Botrytis cinerea
  Test C disease control rating (100 = 100% disease control, 0 = no disease control relative to the controls): 100%
Septoria tritici
  Test B disease control rating (100 = 100% disease control, 0 = no disease control relative to the controls): 99%
[1]
  Test A disease control rating (100 = 100% disease control, 0 = no disease control relative to the controls): 0%
